Reference: ChEMBL document CHEMBL6134829, “Targeting cysteine protease B to discover antileishmanial drugs: Directions and advances” (Eur J Med Chem, 2025)
In brackets after ≈: the same amount, converted by molar mass. *1 amine or outer side, *2 acyl side, *3 side chain or, on linkers, in order; H or OH if unused. Where a SMILES comes first, the peptide text is derived from it. [ ]: non-standard residue; d: D form. X1 = O=C1CC2C(=O)N(CCN[*:1])C(=O)C2C(c2ccc(C(=O)[*:2])cc2)C1; X2 = O=C1CC2C(=O)N(CCN[*:1])C(=O)C2C(C(=O)[*:2])C1; Cha = N[C@@H](CC1CCCCC1)C(=O)O

How the values were obtained:
[1] = Inhibition of Leishmania mexicana CPB2.8
[2] = Inhibition of Leishmania donovani cysteine protease
[3] = Binding affinity to Leishmania mexicana CPB2.8 assessed as inhibition constant
[4] = test system: Leishmania amazonensis; assay: Antileishmanial activity against Leishmania amazonensis promastigotes assessed as inhibition of parasite growth; format: functional, organism-based
[5] = test system: Leishmania major; assay: Antileishmanial activity against Leishmania major promastigotes MHOM/IL/81/FE/BN; format: functional, organism-based
[6] = test system: Leishmania donovani; assay: Antileishmanial activity against Leishmania donovani MHOM/IN/1983/AG83 axenic amastigotes assessed as inhibition of growth at 10 uM relative to control; format: functional; set-up: scale not given: the % may be the effect or the level left
[7] = test system: Leishmania infantum; assay: Antileishmanial activity against Leishmania infantum promastigote assessed as reduction in parasite growth after 72 hrs by MTT assay relative to control; format: functional; set-up: scale not given: the % may be the effect or the level left

Compound | IC50 [1] [nM] | also measured
O=C1CC(c2ccc(O)c(-c3c(O)cc4c(c3O)C(=O)CC(c3ccc(O)cc3)O4)c2)Oc2cc(O)cc(O)c21 (stereo unspecified) | 2200 | –
Oc1cc(O)cc(/C=N/c2ccc(/N=C/c3ccc(O)cc3O)c(Cl)c2)c1 | – | IC50 [2]: 65300 nM
O=C(CN1C(=O)/C(=N\NC(=O)c2ccncc2)c2ccccc21)Nc1ccccc1 | – | IC50 [2]: 62600 nM
COc1ccc(-c2oc3ccccc3c(=O)c2O)cc1 | 4720 | Ki [3]: 7710 nM
O=c1c(O)c(-c2ccc3c(c2)OCO3)oc2ccccc12 | 5230 | Ki [3]: 7060 nM
O=C1c2c(O)cc(O)cc2O[C@@H](c2ccc(O)cc2)[C@@H]1c1c(O)cc(O)c2c(=O)cc(-c3ccc(O)c(O)c3)oc12 | 5200 | IC50 [4]: 95 µg/mL (≈ 171 µM)
CC(C)C[C@H](NC(=O)OC(C)(C)C)C(=O)N1CCC[C@@H]1C(=O)N1[C@H](C(=O)OCc2ccccc2)[C@H]1C(=O)OCc1ccccc1 | – | IC50 [5]: 39600 nM
CC(C)[C@H](NC(=O)c1ccc(C2CC(=O)CC3C(=O)N(CCNC(=O)[C@H](CC(=O)O)NC(=O)[C@@H](N)Cc4c[nH]c5ccccc45)C(=O)C32)cc1)C(=O)N[C@@H](CO)C(=O)N[C@@H](CCCCN)C(N)=O (stereo partly specified) (H-WD[X1]VSK-NH2) | 1700 | –
O=C(O)c1ccccc1N/N=C/c1ccc(/C=N/Nc2ccccc2C(=O)O)cc1 | – | IC50 [2]: 72000 nM
CN(C)c1ccc(/C=C/C(=O)c2cc(Cl)ccc2O)cc1 | 3970 | Ki [3]: 5470 nM
CC(C)C[C@H](NC(=O)OC(C)(C)C)C(=O)N1CCC[C@@H]1C(=O)N1[C@@H](C(=O)OCc2ccccc2)[C@@H]1C(=O)OCc1ccccc1 | 3800 | –
Oc1cccc(/C=N\c2cccc3c(/N=C/c4cccc(O)c4O)cccc23)c1O | – | IC50 [2]: 113000 nM
COC(=O)c1ccc(NC(=O)CSc2nc3ccc(Cl)cc3n2Cc2cc(C)cc(C)c2)c(Cl)c1 | 2060 | Ki [3]: 690 nM
Cc1ccc(C(=O)[C@@]23C(=O)OC(=O)[C@]2(C)N(C)[C@]2(c4ccccc4)Sc4ccccc4[C@H]32)cc1 | 3700 | Ki [3]: 1360 nM
COc1ccc2nc3cc(Cl)ccc3c(-n3c(=S)[nH][nH]c3=S)c2c1 | 1140 | IC50 [4]: 6.57 µg/mL (≈ 17.5 µM)
CC(C)C[C@@H](NC(=O)OC(C)(C)C)C(=O)N1CCC[C@@H]1C(=O)N1[C@H](C(=O)OCc2ccccc2)[C@H]1C(=O)OCc1ccccc1 | – | IC50 [5]: 35400 nM
CC(C)(F)C[C@H](N[C@@H](c1ccc(-c2ccc(S(C)(=O)=O)cc2)cc1)C(F)(F)F)C(=O)NC1(C#N)CC1 [ODANACATIB] | – | Activity [7]: 90%
CCOc1cc(/C=C2\SC(=O)NC2=O)ccc1O | 1420 | Activity [6]: 100%
CC(C)(C)OC(=O)N[C@@H](Cc1cccc(Cl)c1)C(=O)NCC#N | – | Activity [7]: 35%
CC(C)=CCOc1ccc(C(=O)c2ccc(O)cc2)c(O)c1 | 2900 | Ki [3]: 4300 nM
C[C@@H]1CCC2(C(=O)O)CC[C@]3(C)C(=CCC4[C@@]5(C)CCC(=O)C(C)(C)C5CC[C@]43C)C2[C@H]1C (stereo partly specified) | 3780 | Ki [3]: 1260 nM

The remaining compounds from weak to strong by IC50 [1], led by results:

IC50 [1] [nM] | Compound | also measured
1100 | COc1ncccc1Nc1nc(C#N)nc(NC2CCCCC2)n1 | –
980 | O=C1NC(=O)/C(=C/c2ccc([N+](=O)[O-])cc2)S1 | Activity [6]: 93.98%
680 | Cc1cc(C)cc(S(=O)(=O)n2c(SCC(=O)Nc3ccccc3)nc3ccccc32)c1 | Ki [3]: 230 nM
540 | COC(=O)c1ccc(NC(=O)CSc2nc3ccccc3n2S(=O)(=O)c2cc(C)cc(C)c2)cc1 | Ki [3]: 180 nM
500 | CC(C)C[C@H](NC(=O)C1CC(=O)CC2C(=O)N(CCNC(=O)[C@H](Cc3ccccc3)NC(=O)[C@@H](N)Cc3c[nH]c4ccccc34)C(=O)C12)C(=O)N[C@@H](Cc1ccc(O)cc1)C(=O)N[C@@H](Cc1ccc(O)cc1)C(N)=O (stereo partly specified) (H-WF[X2]LYY-NH2) | –
450 | COC(=O)c1ccc(NC(=O)CSc2nc3ccc(Cl)cc3n2S(=O)(=O)c2cc(C)cc(C)c2)c(Cl)c1 | Ki [3]: 150 nM
450 | CC(C)[C@H](NC(=O)c1ccc(C2CC(=O)CC3C(=O)N(CCNC(=O)[C@H](Cc4c[nH]c5ccccc45)NC(=O)[C@@H](N)CC4CCCCC4)C(=O)C32)cc1)C(=O)N[C@H](C(=O)N[C@@H](Cc1ccccc1)C(N)=O)C(C)C (stereo partly specified) (H-[Cha]W[X1]VVF-NH2) | –
430 | O=C1CC(c2ccc(O)cc2)Oc2cc(O)c(-c3c(O)cc(O)c4c(=O)cc(-c5ccc(O)cc5)oc34)c(O)c21 (stereo unspecified) | –
230 | CN1CCN(C(=O)N[C@@H](Cc2ccccc2)C(=O)N[C@@H](CCc2ccccc2)C(=O)c2cc(-c3ccccc3)on2)CC1 | –
190 | O=C(N[C@@H](CCc1ccccc1)C(=O)c1cc(-c2ccccc2)on1)[C@H](Cc1ccccc1)NC(=O)N1CCOCC1 | –
100 | O=C(N[C@@H](Cc1ccccc1)C(=O)c1cc(-c2ccccc2)on1)[C@H](Cc1ccccc1)NC(=O)N1CCOCC1 | –
70 | COc1ccc(-c2ccc(/C=N/NC(N)=S)o2)cc1 | –
60 | NC(=S)N/N=C/c1c(-c2ccccc2)[nH]c2ccccc12 | –
50 | O=C(N[C@@H](Cc1ccccc1)C(=O)c1noc(-c2ccccc2)n1)[C@H](Cc1ccccc1)NC(=O)N1CCOCC1 | –
27 | O=C(N[C@H](/C=C/S(=O)(=O)c1ccccc1)CCc1ccccc1)[C@H](Cc1ccccc1)NC(=O)N1CCOCC1 | –
10 | NC(=O)N/N=c1\oc2ccccc2cc1-c1nc2ccccc2[nH]1 | –
